Data on nine compounds can be found in patent US9751825B2, “TAK1 kinase inhibitors, compositions, and used related thereto” (Emory University, priority 2011, dated 2017).

Molecules are shown by their SMILES. Entries after “also recorded” stand apart in the source; their conditions may differ. Where two headings read alike, the source gives them in different places.

The subject of data set [1] is Non-tumor MCF12A (ER+) cells. The experiment in a line: Cytotoxicity in non-tumor MCF12A cells. The format is cell-based, human. As for the experimental part: (§1) The assay consists of treatment of cells with the synthetic compounds (a range of concentrations) and subsequent quantification of the cells by staining with methylene blue and measuring optical density of the resulting colored solution. The measured optical densities are normalized to a vehicle-control and the normalized values are used to determine IC50 values for a given compound using SigmaPlot software, Systat Software, Inc., San Jose, Calif. Cells were seeded in 96-well plate at 2-5,000 cells/well in 100 μl. Next day cells were treated with HDAB compounds. Stocks of compounds (10 mM) were prepared by dissolving in DMSO. Consecutive dilutions ranging 10 nM-100 μM concentrations were prepared as 2× solutions in media, and 100 μl solutions were added to cells for treatment. DMSO was used as a vehicle control. Cells were incubated with compounds for 48 hours at 37° C. in a CO2-incubator. For cell staining, media was removed and cells were fixed and stained with 0.5% Methylene blue in water/methanol (50:50) solution for 1 hour at room temperature (RT). After extensive rinsing in ddH2O the plates were dried over-night. Cells were solubilized in 100 μl/well of 1% SDS in PBS for 10 minutes at RT, the absorbance at 650 nm (methylene-blue absorbance) and 540 nm (background) was read with a SpectraMax fluorimeter and the difference Abs650-Abs540 was calculated. […]

The subject of another data set is RWPE-2. Kind of data set: Cytotoxicity of HDAB001 in prostate carcinoma cell lines, RWPE-2. As to conditions: RWPE-2, AR pos, tumor, metastatic. The format is cell-based. The method, then: as §1
Another data set has as its system ER-positive cell lines. The experiment in a line: Cytotoxicity in ER-positive breast carcinoma cell lines. The format is cell-based. As to conditions: three ER-positive cell lines. The method, then:
as §1

The subject of data set [2] is Non-tumor MCF10A (ER-, PR-) cells. The experiment in a line: Cytotoxicity in non-tumor MCF10A cells. The data set is classed as cell-based, human. The method, then:
as §1

Data set [3] has as its system breast, prostate and lung carcinoma and non-tumor cell lines. The data set is classed as cell-based. As for the experimental part: (§2) The assay consists of treatment of cells with the synthetic compounds (a range of concentrations) and subsequent quantification of the cells by staining with methylene blue and measuring optical density of the resulting colored solution. The measured optical densities are normalized to a vehicle-control and the normalized values are used to determine IC50 values for a given compound using SigmaPlot software, Systat Software, Inc., San Jose, Calif. Cells were seeded in 96-well plate at 2-5,000 cells/well in 100 μl. Next day cells were treated with HDAB compounds. Stocks of compounds (10 mM) were prepared by dissolving in DMSO. Consecutive dilutions ranging 10 nM-100 μM concentrations were prepared as 2× solutions in media, and 100 μl solutions were added to cells for treatment. DMSO was used as a vehicle control. Cells were incubated with compounds for 48 hours at 37° C. in a CO2-incubator. For cell staining, media was removed and cells were fixed and stained with 0.5% Methylene blue in water/methanol (50:50) solution for 1 hour at room temperature (RT). After extensive rinsing in ddH2O the plates were dried over-night. Cells were solubilized in 100 μl/well of 1% SDS in PBS for 10 minutes at RT, the absorbance at 650 nm (methylene-blue absorbance) and 540 nm (background) was read with a SpectraMax fluorimeter and the difference Abs650-Abs540 was calculated.
Assays were carried out with a panel of breast, prostate and lung carcinoma and non-tumor cell lines with HDAB-001. […] The selectivity trend for HDAB001 was further validated in a set of prostate carcinoma and non-tumor epithelial cell lines.

The subject of data set [4] is prostate cancer cells (PC3) and breast cancer MDA-MB-231 cells. The experiment in a line: Tumor cell growth with kinase inhibitors, with or without TNFα (FIG. 2). The data set is classed as cell-based. To be noted: 48 hrs; for tumor cell growth: 5 μM U0126, 10 μM 1478, 5 μM 5Z-7-oxozeanol, 5 μM HDAB001, 5 μM SB431542; for repression of tumor cell growth together with TNFα: TNFα (10 ng/ml). An excerpt:
The response of prostate cancer cells (PC3, FIG. 2) and breast cancer MDA-MB-231 cells to HDAB001 was compared with responses to known kinase inhibitors, including 5Z-7-oxozeanol, a selective inhibitor of TAK1; U0126, a selective MEK inhibitor; AG1478, a selective EGFR inhibitor; SB431542, TGFBR1 inhibitor.

The test system of the next data set is PC3. Kind of data set: Cytotoxicity of HDAB001 in prostate carcinoma cell lines, PC3. To be noted: PC3, AR neg, metastatic. The data set is classed as cell-based. As for the experimental part: as §1
A further data set relates to phosphorylation of ERK. The experiment in a line: Phosphorylation of ERK in non-tumor MCF10A cells with EGF-mediated signaling. As to conditions: 10 μM HDAB001, 10 μM AG1478. The data set is classed as cell-based, human. As for the experimental part: (§3) MEK inhibitor U0126 inhibits phosphorylation of ERK and EGFR inhibitor blocks EGFR-mediated phospho-ERK in MCF10A.
(§4) The selectivity of the HDAB001 and HDAB006 compounds was tested in several cell-based assays examining the kinase activity of RAF, MEK, EGFR and TGFBR1. Several known inhibitors of the above kinases were used for control. Two luciferase reporters NF-KB-Luc and SBE-Luc were transfected in MDA-MB-231 cells to assess the effect of compounds on NF-KB and TGF-beta receptor-Smad signaling events. […] See Safina et al., TAK1 is required for TGF-[beta]1-mediated regulation of matrix metalloproteinase-9 and metastasis. Oncogene, 2008, 27, 1198-1207. […] The kinase activities of TGF-beta receptors type I and type II are required for phosphorylation of Smad2.

For a further data set, the system named is ER/HER2-positive lines. The experiment in a line: Cytotoxicity in ER/HER2-positive breast carcinoma lines. The format is cell-based. As to conditions: two ER/HER2-positive lines. The method, then:
as §1

For another data set, the system named is phosphorylation of Smad2. Kind of data set: Phosphorylation of Smad2 in TGFβ1-treated cells. The format is cell-based. As to conditions: 2 ng/ml TGFβ1 for 2 hours; HDAB001 10 μM. As for the experimental part: as §3, §4
In data set [5] the test system is breast carcinoma MDA-MB-231 cells. Kind of data set: Cytotoxicity assay (methylene blue staining), MDA-MB-231 cells. The format is cell-based. As for the experimental part:
as §2

Data set [6] has as its system phosphorylation of ERK1/2. Kind of data set: Phosphorylation of ERK1/2 in MDA-MB-231 cells. To be noted: 2 ng/ml TGFβ1 for 2 hours, 10 μM HDAB001, 5 μM U0126. The data set is classed as cell-based. As for the experimental part: as §3, §4
For a further data set, the system named is LNCaP-C4-2. Kind of data set: Cytotoxicity of HDAB001 in prostate carcinoma cell lines, LNCaP-C4-2. The format is cell-based. To be noted: LNCaP-C4-2, AR pos, ind, metastatic. As for the experimental part:
as §1

For a further data set, the system named is SBE-Luc. Kind of data set: SBE-Luc luciferase reporter (TGF-beta receptor-Smad signaling) in MDA-MB-231 cells. The format is cell-based. The method, then:
FIG. 3A-B show data on the luciferase activity of NFkB-Luc and SBE-Luc reporters in MDA-MB-231 control, dnTAK1 or cells treated with HDAB001 and HDAB006, P-values by the ANOVA test.
as §4
In general terms: A reporter such as luciferase makes a cellular process visible.

In another data set the test system is RWPE-1. Kind of data set: Cytotoxicity of HDAB001 in prostate cell lines, RWPE-1 (non-tumor). The format is cell-based. To be noted: RWPE-1, AR pos. The method, then:
as §1

Data set [7] concerns mouse carcinoma cell line 4T1. The experiment in a line: Cytotoxicity in mouse carcinoma cell line 4T1. The format is cell-based. As to conditions: 4T1 (from BALB/c mice). The method, then:
as §1

The subject of the next data set is LNCaP. The experiment in a line: Cytotoxicity of HDAB001 in prostate carcinoma cell lines, LNCaP. The data set is classed as cell-based. As to conditions: AR pos, tumor. The method, then:
as §1

Data set [8] is described as follows: Stability of the isolated product at room temperature. The format is physicochemical.
Setting [9] is: triple-negative MDA-MB-231 cells.

Turning to `COC(=O)/C=C\C=C(\C(=O)OC)c1ccc(Cl)c(Cl)c1` [HDAB001], the IC50 in [1] was over 100000 nM; in the data set on RWPE-2, 2400 nM; with ER-positive cell lines, 300 to 750 nM; in data set [2], 48000 nM; in the data set on PC3, 2300 nM; in the data set on ER/HER2-positive lines, 1000 to 1500 nM. For the same compound, the IC50 in data set [5] (MDA-MB-231 cells, 48 hours incubation, methylene blue staining) worked out at 4620 nM; in [5] (setting [9]), 3700 nM; in the data set on LNCaP-C4-2 it was 500 nM; in the data set with RWPE-1 it was 40100 nM; in data set [7] it was 530 nM; with LNCaP it was 2100 nM. Further, the “IC50 in non-tumor MCF10A and MCF12A cells relative to tumor cells” value in data set [3] (non-tumor vs tumor cells) is given as about 20 fold. In data set [3] (tumor vs non-tumor cells), the “selectivity for tumor cells compared to non-tumor cells” value was “at least twenty-fold”. Besides, in data set [4], the tumor cell growth result was “markedly inhibited”. Also, the “repression of tumor cell growth together with TNFα” value in data set [4] is given as “cooperated with TNFα”. Moreover, the “phosphorylation of ERK in the presence of EGF-mediated signaling” value with phosphorylation of ERK is on record as “did not affect”. Further, in the data set with phosphorylation of Smad2, the “phosphorylation of Smad2” value is given as “did not affect”. For the same compound, the “phosphorylation of ERK1/2” value in data set [6] is “did not affect”. Moreover, the TGF-beta reporter activity entry in the data set with SBE-Luc is reported as “did not affect”.
On to `N#CC(=C(/N)Sc1ccccc1N)/C(C#N)=C(\N)Sc1ccccc1N` [Compound U0126], for which, in data set [4], the tumor cell growth entry is “less sensitive”. In [6], the “phosphorylation of ERK1/2” value was “inhibits; also recorded: effectively blocked”.
Take `COc1cc2ncnc(Nc3cccc(Cl)c3)c2cc1OC` [AG1478]: the tumor cell growth result in [4] is listed as “resistant”. The “phosphorylation of ERK in the presence of EGF-mediated signaling” value in the data set with phosphorylation of ERK is recorded as “blocked”.
For `COC(=O)/C=C\C=C(\C(=O)N(C)OC)c1ccc(Cl)c(Cl)c1` [Compound 1-63h, (2Z,4E)-methyl 5-(3,4-dichlorophenyl)-6-(methoxy(methyl)amino)-6-oxohexa-2,4-dienoate], the stability after isolation entry in data set [8] is “decomposed at room temperature”.
For `NC(=O)c1ccc(-c2nc(-c3ccc4c(c3)OCO4)c(-c3ccccn3)[nH]2)cc1` [SB431542, reference compound], in data set [4], the tumor cell growth result is given as “resistant”. In addition, the “phosphorylation of Smad2” value with phosphorylation of Smad2 is given as “blocked”.
Take `COc1cccc2c1C(=O)c1c(O)c3c(c(O)c1C2=O)C[C@@](O)(C(=O)CO)C[C@@H]3O[C@H]1C[C@H](N)[C@H](O)[C@H](C)O1` [Doxorubicin, reference compound]: in [3] (human, 48 h), the “more toxic to non-tumor MCF10A than to breast cancer MDA-MB-231 cells” value is 3-10 fold.
On to `O=c1[nH]cc(F)c(=O)[nH]1` [Compound 5FU, 5-FluororoUricil, reference compound], for which the IC50 in data set [2] amounted to 1800 nM; in [5] (setting [9]), 5700 nM. The “more toxic to non-tumor MCF10A than to breast cancer MDA-MB-231 cells” value in data set [3] is reported as 3-10 fold.
For the compound `COC(=O)/C=C\C=C(\C(=O)OC)c1ccc(Br)c(Br)c1` [HDAB022, (2E,4Z)-dimethyl 2-(3,4-dibromophenyl)hexa-2,4-dienedioate], the IC50 in data set [5] (Homo sapiens, MDA-MB-231 cells, 48 hours incubation, methylene blue staining) was determined as 2160 nM.
Regarding `COc1cc(O)c2c(c1)/C=C/C[C@H](O)[C@H](O)C(=O)/C=C\C[C@H](C)OC2=O` [5Z-7-oxozeanol], in data set [4], the tumor cell growth entry is listed as “markedly inhibited” and the “repression of tumor cell growth together with TNFα” value was “cooperated with TNFα”.

In general, IC50 refers to the point on the concentration scale where inhibition reaches its midpoint. A low value points to inhibition by little substance.
